Test results from the NIST ThermoML archive (doi:10.1021/je9004849).

Conditions: Fluid (supercritical or subcritical phases), Buoyancy - hydrostatic balance with magnetic suspension - one sinker

C [methane]
Conditions | mass density [kg/m3]
298.14 K, 20012 kPa | 157.172
298.14 K, 29958 kPa | 212.508
298.14 K, 35056 kPa | 232.422
298.14 K, 49959 kPa | 273.189
298.14 K, 99874 kPa | 342.269
298.14 K, 124934 kPa | 363.139
298.14 K, 150062 kPa | 380.039
298.14 K, 159617 kPa | 385.731
298.14 K, 170054 kPa | 391.531
298.14 K, 185333 kPa | 399.489
298.14 K, 186931 kPa | 400.257
298.14 K, 188059 kPa | 400.837
298.15 K, 10010 kPa | 76.08
298.15 K, 79980 kPa | 321.098
298.16 K, 1012 kPa | 6.665
298.16 K, 66961 kPa | 303.605
298.19 K, 5009 kPa | 35.316
298.25 K, 14994 kPa | 118.506
305.23 K, 9993 kPa | 72.932
305.23 K, 49968 kPa | 267.232
305.23 K, 60012 kPa | 287.019
305.23 K, 79855 kPa | 316.163
305.23 K, 99904 kPa | 337.939
305.23 K, 124930 kPa | 359.159
305.23 K, 149862 kPa | 376.248
305.24 K, 1002 kPa | 6.404
305.24 K, 2000 kPa | 13.031
305.24 K, 5001 kPa | 34.173
305.24 K, 6897 kPa | 48.435
305.24 K, 15006 kPa | 113.44
305.24 K, 20696 kPa | 155.024
305.24 K, 29976 kPa | 205.443
305.24 K, 34563 kPa | 223.779
305.24 K, 69988 kPa | 302.917
338.04 K, 6905 kPa | 42.093
338.05 K, 5000 kPa | 29.983
338.05 K, 34473 kPa | 195.446
338.06 K, 70001 kPa | 280.639
338.07 K, 124895 kPa | 341.685
338.07 K, 149542 kPa | 359.787
338.08 K, 1004 kPa | 5.782
338.08 K, 2004 kPa | 11.667
338.08 K, 15026 kPa | 95.246
338.08 K, 20687 kPa | 130.132
338.08 K, 30005 kPa | 177.38
338.08 K, 50031 kPa | 241.969
338.08 K, 59971 kPa | 263.229
338.09 K, 164905 kPa | 369.665
338.1 K, 9969 kPa | 62.054
338.1 K, 80310 kPa | 295.61
338.11 K, 99908 kPa | 318.744
338.12 K, 179829 kPa | 378.164
399.94 K, 89964 kPa | 274.637
399.97 K, 59973 kPa | 225.951
399.98 K, 1002 kPa | 4.86
399.98 K, 30014 kPa | 141.158
399.99 K, 15027 kPa | 74.789
400 K, 50037 kPa | 203.469
400 K, 79920 kPa | 260.652
400.01 K, 2001 kPa | 9.744
400.01 K, 6915 kPa | 34.195
400.01 K, 10002 kPa | 49.746
400.02 K, 20675 kPa | 101.642
400.02 K, 124882 kPa | 312.062
400.02 K, 149627 kPa | 332.136
400.03 K, 13795 kPa | 68.723
400.04 K, 34510 kPa | 157.64
400.04 K, 69978 kPa | 244.725
400.07 K, 5005 kPa | 24.61
400.09 K, 99984 kPa | 286.8
450 K, 2009 kPa | 8.61
450.01 K, 20697 kPa | 87.478
450.01 K, 99932 kPa | 264.608
450.02 K, 89981 kPa | 251.923
450.02 K, 119918 kPa | 286.376
450.03 K, 59975 kPa | 202.137
450.03 K, 139476 kPa | 304.187
450.05 K, 30002 kPa | 121.791
450.06 K, 50036 kPa | 179.955
450.06 K, 69966 kPa | 221.073
450.08 K, 80008 kPa | 237.571
450.09 K, 6886 kPa | 29.741
450.12 K, 34492 kPa | 136.647
